Experimental data as given in ChEMBL document CHEMBL2448809, “UCSF DeRisi Lab MMV Box Apicoplast Screening”.

tested on: Plasmodium falciparum; assay: MMV: Compounds (1uM) were screened in a 72hr growth assay monitored by flow cytometry both in the presence and absence of supplemental isopentenyl pyrophosphate (IPP) 200uM. Compounds which fail to show anti-malarial activity when chemically rescued by IPP are therefore specific to the apicoplast. The values are expressed as the ratio of the corresponding activity with and without IPP, respectively.; format: functional, W2

In order of rising Ratio:
1. O=C(Nc1cccc(-c2nc3ccccc3[nH]2)c1)c1cccc(NC(=O)c2ccco2)c1  0.6407
2. CCOC(=O)C1CCN(C(=O)CN2C(=O)c3ccccc3C2c2c[nH]c3ccccc23)CC1 (centres undefined)  0.6812
3. COc1cc(SC)ccc1C(=O)N1CCCC(C)C1 (centres undefined)  0.6888
4. CCOC(=O)C1(Cc2ccccc2)CCN(Cc2cccc(OC)c2O)CC1  0.7015
5. O=C(NC1CCN(Cc2ccccc2)CC1)c1cc(-c2cccnc2)nc2ccc(Cl)cc12  0.7184
6. CCC(=O)Nc1nnc(Cc2ccc(OC)c(OC)c2)s1  0.7213
7. Cc1ccc(C2CC(C(F)(F)F)n3nc(C(=O)N4CCN(C(c5ccccc5)c5ccccc5)CC4)cc3N2)cc1 (centres undefined)  0.725
8. CN(C)CCCNCc1ccc(-c2ccc(F)c(Cl)c2)o1.Cl  0.75
9. CN(C)c1ccc(N2C(N)=NC(N)=NC2(C)C)cc1  0.7632
10. COc1cccc(C(=O)Nc2ccc(-c3nc4ccccc4[nH]3)cc2)c1  0.7651
11. COc1ccc2nc(C)cc(Nc3ccccc3O)c2c1  0.7711
12. O=C(NCc1ccco1)C1CCN(S(=O)(=O)c2ccc(Br)cc2)CC1  0.7733
13. COc1ccc(C2C(C(=O)Nc3cccc(OC)c3)c3ccccc3C(=O)N2C2CCCCC2)cc1 (centres undefined)  0.7969
14. Oc1c2c(nc3cc(-c4ccccc4)nn13)CCCC2  0.8046
15. COc1ccc2nc(C)cc(Nc3ccc(Cl)cc3)c2c1  0.8189
16. O=C1CC(O)(C(F)(F)C(F)(F)F)Oc2ccccc21 (centres undefined)  0.8205
17. CCOc1c(Cl)cc(CNCC(O)c2ccccc2)cc1OC (centres undefined)  0.8286
18. Cc1cc(Nc2cccc(F)c2)nc(NCc2ccccc2)n1  0.8333
19. O=C(O)C(=O)O.Oc1ccc(Br)cc1CN1CCN(Cc2cccc(F)c2)CC1  0.8333
20. CCOc1ccc2c(c1)CN(Cc1ccc(Cl)cc1)CO2  0.8361
21. CCOc1ccccc1CN1CCc2nc3cc(C(C)(C)C)nn3c(O)c2C1  0.8444
22. CCCCc1c(C)nc2c(OC)cccc2c1O  0.8472
23. Clc1ccc2c(N3CCCC3)ccnc2c1  0.8475
24. Cc1ccc(OCCCCCCNCCO)c(C)c1  0.8556
25. CCCCN(CCCC)S(=O)(=O)c1ccc(NC(=O)c2ccco2)cc1  0.8649
26. O=C1c2ccccc2C2=Nc3ccccc3SC(c3cccc(F)c3)C12 (centres undefined)  0.8676
27. COc1ccc(C2NCCc3c2[nH]c2ccccc32)cc1CN1CCN(c2ccc(F)cc2)CC1.Cl (centres undefined)  0.8727
28. OC(CNCC1CCCO1)Cn1c2ccc(Cl)cc2c2cc(Cl)ccc21 (centres undefined)  0.8732
29. Cc1ccc2nc(C)cc(Nc3cccc(C(F)(F)F)c3)c2c1.Cl  0.875
30. CCOc1cc2c(cc1OCC)C(c1cc(Cl)c(O)c(OCC)c1)NCC2 (centres undefined)  0.8824
31. COc1ccc(N2CCN(C(CNC(=O)CC(C)(C)C)c3ccc4c(c3)OCO4)CC2)cc1 (centres undefined)  0.8841
32. Cc1ccccc1OCCSc1nc2ccc(NC(=O)c3ccccc3)cc2s1  0.8842
33. O=C1c2ccccc2-c2nnc(-c3ccc(Br)cc3)cc21  0.8889
34. Oc1c(CN2CCN(c3ccccc3F)CC2)cc(Br)c2cccnc12  0.8919
35. O=C(NCCCN1CCC(N2CCCCC2)CC1)C1=Cc2cc(Br)ccc2OC1  0.8966
36. CC(C)(C)c1ccc2c(c1)CN(Cc1ccc(Cl)cc1)CO2  0.8966
37. COc1ccc2nc(N)nc(C)c2c1  0.8974
38. CC(C)(C)CC(C)(C)NCC(O)COc1ccc(Cl)cc1Cl (centres undefined)  0.8983
39. O=c1c2c([nH]c3ccccc13)CCCC2  0.8986
40. COc1ccc(-c2nonc2NC(=O)c2cccc(Cl)c2)cc1OC  0.9
41. O=C(Nc1ccc(CN2CCOCC2)cc1)c1ccc(-c2cc(Cl)ccc2Cl)o1  0.9054
42. CCOc1ccccc1NC(=O)CN1CCN(C(=O)c2ccco2)CC1  0.906
43. Cc1cc(N2CCCC2)nc(Nc2ccc(NC(=O)CCc3ccccc3)cc2)n1  0.9077
44. CC(C)(C)c1ccc(C(=O)Nc2c3c(nn2-c2cccc(Cl)c2)CSC3)cc1  0.9138
45. O=C(Nc1ccc(C23CC4CC(CC(c5ccccc5)(C4)C2)C3)cc1)c1cccs1  0.9231
46. CC(C)CCNCC(O)Cn1c2ccccc2c2ccccc21.Cl (centres undefined)  0.9245
47. COc1cccc(Cn2c(Oc3ccccc3)nc3c2c(=O)n(C)c(=O)n3C)c1  0.9255
48. Cc1ccc(S(=O)(=O)c2c(COC(=O)c3cccc(C)c3)c(-c3ccccc3)nn2C)cc1  0.9265
49. Cc1sc2ncnc(Sc3nc4ccccc4[nH]3)c2c1C  0.9273
50. COc1ccc(OC)c(C2C3=C(CC(C)(C)CC3=O)N(c3ccc(Cl)c(Cl)c3)C3=C2C(=O)CC(C)(C)C3)c1  0.9277
51. CC(C)c1ccc(CNCC(O)c2ccccc2)cc1.Cl (centres undefined)  0.9296
52. OC1CCCCC1C1(NC(=S)Nc2ccccc2)CCCCC1 (centres undefined)  0.9298
53. CCOc1ccc(-n2cc(-c3ccccc3)c3c(SCc4cc(C)ccc4C)ncnc32)cc1  0.9394
54. Cl.OC(CNCc1ccccc1)Cn1c2ccccc2c2ccccc21 (centres undefined)  0.9403
55. Cc1ccc(NC(=O)Nc2cccc(Cl)c2)cc1F  0.9455
56. CN1CCN(c2ncnc3c2[nH]c2ccc(Cl)cc23)CC1  0.9492
57. COc1ccc(-c2cc(=O)oc3c4c(ccc23)OCN(Cc2ccc(F)cc2)C4)cc1  0.9508
58. COCCn1c(C)nc2ccccc2c1=O  0.9589
59. Cc1c(C)n(CC(O)CNC2CCCCC2C)c2ccccc12 (centres undefined)  0.9649
60. COc1ccc2c(c1)C1(Nc3ccccc3-c3nc4ccccc4n31)C(=O)N2 (centres undefined)  0.9667
61. O=c1nc(C=Cc2ccc(Cl)cc2)oc2ccccc12  0.9697
62. CCN(Cc1ccccc1)C1CCN(Cc2cc(Br)ccc2O)CC1.O=C(O)C(=O)O  0.9701
63. COc1ccc(C)c2sc(N(Cc3cccnc3)C(=O)c3ccc(C#N)cc3)nc12  0.971
64. COc1ccc(C(=O)NC(c2ccc(Cl)cc2Cl)c2cc(Cl)c3cccnc3c2O)cc1 (centres undefined)  0.9814
65. CCN1CCN(c2c(C(=O)c3ccccc3)cnc3cc(OC)c(OC)cc23)CC1  0.9828
66. CCCCCCn1c(=N)n(CC(O)COc2cccc(C)c2)c2ccccc21.Cl (centres undefined)  0.9831
67. Cc1cc(NC(=O)c2ccc(-c3ccccc3)cc2)no1  0.9841
68. CCC(O)c1ccc(Br)cc1NC(=O)c1cccc(Cl)c1 (centres undefined)  1
69. Cc1ccc(C)c(Cn2c(N3CCC(C(=O)NCc4cccs4)CC3)nc3ccccc32)c1  1
70. CCCc1c(C)nc2ccc(Br)cc2c1O  1
71. CCOc1ccc(Nc2c3ccccc3nc3ccccc23)cc1.Cl  1
72. CN(C)CCNc1cc(-c2ccccc2)nc2ccccc12  1.015
73. O=c1cc(NC2CCN(CCCc3ccccc3)CC2)c2cc(Cl)ccc2o1  1.019
74. CC(=O)c1ccc(NC(=O)CSc2nc(-c3ccccc3Cl)ns2)cc1  1.02
75. COc1ccccc1N1C(=N)SC(=Cc2ccc(OCc3ccccc3F)cc2)C1=O  1.033
76. COc1ccc2c(c1OC)C(=O)N1c3ccccc3N=C(c3ccc(C)cc3)CC21 (centres undefined)  1.052
77. c1ccc2c(NCCc3c[nH]c4ccccc34)c3ccccc3nc2c1  1.057
78. CCn1nc(-c2ccc(C(=O)OC)cc2)nc2c(=O)n(C)c(=O)nc1-2  1.058
79. CC1CCN(Cc2c(O)ccc3cc(-c4nc5ccccc5s4)c(=O)oc23)CC1  1.058
80. COc1ccc(CCNC(=O)c2cc(S(=O)(=O)N3CC(C)CC(C)C3)ccc2Sc2ccc(F)cc2)cc1OC (centres undefined)  1.061
81. CC1(c2ccccc2)Nc2ccccc2-c2nc3ccccc3n21 (centres undefined)  1.062
82. Cc1nc2ccccc2c(O)c1CC=C(Cl)Cl  1.066
83. Cc1cc(=O)oc2c1ccc1oc(C(=O)c3ccccc3)c(C)c12  1.067
84. OC1=C2C(=Nc3ccccc3SC2c2ccc(Br)cc2)c2ccccc21 (centres undefined)  1.068
85. CCCCCCc1cc(O)c2c3c(c(=O)oc2c1)CCC(C)C3 (centres undefined)  1.073
86. CCOc1ccc(CCNC(=O)c2cccs2)cc1OCC  1.073
87. CCCCC(O)(c1ccc(Cl)cc1)C(CN1CCOCC1)c1ccc(Cl)cc1.Cl (centres undefined)  1.074
88. FC(F)(F)c1cccc(Nc2nc3ccccc3nc2Nc2cccc(C(F)(F)F)c2)c1  1.08
89. CC1=C(CC(=O)c2cccc([N+](=O)[O-])c2)C(=O)c2ccccc2C1=O  1.085
90. COc1ccc(Nc2nc(NCc3ccccc3)c3ccccc3n2)cc1  1.093
91. Cc1ccc2cc3c(N)c4c(C)ccc(C)c4nc3nc2c1  1.095
92. COc1cccc(C(=O)NC(c2ccc(C)cc2)c2cc(Cl)c3cccnc3c2O)c1 (centres undefined)  1.1
93. O=C(Nc1ccc(Br)cc1)Nc1cccc(Cl)c1  1.104
94. Cl.c1ccc2c(NCCCCCCNc3c4c(nc5ccccc35)CCCC4)c3c(nc2c1)CCCC3  1.108
95. Oc1ccc(C(=C(Cl)Cl)c2ccc(O)cc2)cc1  1.113
96. CCCCCn1c(=N)n(CC(O)COc2cccc(C)c2)c2ccccc21.Cl (centres undefined)  1.128
97. CCCCOC(=O)c1ccc(Nc2cc(C)nc3ccc(OC)cc23)cc1  1.132
98. O=c1nc(C=Cc2ccc(Br)cc2)oc2ccccc12  1.133
99. CCOc1cc2c(cc1OCC)C(c1cc(C)c(O)c(C)c1)NCC2.Cl (centres undefined)  1.148
100. CCOC(=O)c1cnc2ccc(Cl)cc2c1NCCCN(C)C  1.179
101. COc1ccc2nc(C)cc(Nc3cccc(O)c3)c2c1.Cl  1.191
102. CCOC(=O)C1=C(C)N=c2sc(=Cc3cc(Cl)ccc3O)c(=O)n2C1c1ccc(OC)cc1 (centres undefined)  1.255
103. COc1ccc(CN2CCN(Cc3ccccc3)CC2)c(O)c1  1.283
104. CCOC(=O)c1cnc2c(C)cccc2c1Nc1ccc(C(C)=O)cc1  1.3
105. COc1ccc(C(=O)C2CC2c2ccc(Cl)cc2)cc1 (centres undefined)  1.308
106. Nc1ccc(-c2nc3cc(Cc4ccc5[nH]c(-c6ccc(N)cc6)nc5c4)ccc3[nH]2)cc1  1.333
107. Cc1ccnc(NC(c2cccc(OCc3ccccc3)c2)c2ccc3cccnc3c2O)c1 (centres undefined)  1.558
108. CCOC(=O)C1=C(C)N=c2sc(=Cc3ccccc3O)c(=O)n2C1c1ccc(OC)c2ccccc12 (centres undefined)  1.667
109. COc1cc2c(cc1OC)C1=NNC(=O)C1=NC(C)(C)C2  1.994
